Measured values from article PMC11597202, “Novel Thiazole-Fused [4,5-g] or [5,4-g]Quinazolin-8-ones and Their Quinazoline Analogues: Synthesis and Biological Evaluation” (Pharmaceuticals, 2024).

Columns and labels:
GSK-3β = target: T1, GSK-3β (Homo sapiens, UniProt P49841); assay: ADP-Glo kinase inhibition assay, GSK-3β; format: biochemical; settings: percentage of maximum activity of the DMSO control, mean n = 2, 10 µM ATP, read-out: Residual activity GSK-3β; for remaining activity at 1 µM: 1 μM compound; for remaining activity at 10 µM: 10 μM compound
T1 construct: host or cells: Sf9 insect cells (baculovirus)
Experimental: (§1) Kinase enzymatic activities were assayed in 384-well plates using the ADP-Glo^TM assay kit (Promega, Madison, WI, USA) according to the recommendations of the manufacturer. This luminescent ADP detection assay was described by Zegzouti and co-workers and provides a homogeneous and high-throughput screening method to measure kinase activity by quantifying the amount of ADP produced during a kinase reaction. Briefly, the reactions were carried out in a final volume of 6 µL for 30 min at 30 °C in an appropriate kinase buffer (10 mM MgCl2, 1 mM EGTA, 1 mM DTT, 25 mM Tris-HCl pH 7.5, 50 µg/mL heparin), with peptide or protein as substrate in the presence of 10 µM ATP. Peptide substrates were obtained from ProteoGenix (Schiltigheim, France) or Sigma for Histone H1, Poly (L-glutamic acid–L-tyrosine) sodium salt, Casein and MBP. After that, 6 µL of ADP-Glo^TM Kinase Reagent was added to stop the kinase reaction. After an incubation time of 50 min at room temperature (rt), 12 µL of Kinase Detection Reagent was added for one hour at rt. The transmitted signal was measured using the Envision (PerkinElmer, Waltham, MA, USA) microplate luminometer and expressed as Relative Light Units (RLUs). Kinase activities are expressed as percentages of remaining kinase activities detected after treatment with 1 or 10 µM of the tested compounds. The maximum kinase activity was measured in the absence of inhibitor but with an equivalent dose of DMSO (solvent of the tested compounds).
(§2) 3. Kinase inhibition assays
(§3) Kinase enzymatic activities were assayed in 384-well plates using the ADP-GloTM assay kit (Promega, Madison, WI) according to the recommendations of the manufacturer. This luminescent ADP detection assay was described by Zegzouti and co-workers and provides a homogeneous and high-throughput screening method to measure kinase activity by quantifying the amount of ADP produced during a kinase reaction. Briefly, the reactions were carried out in a final volume of 6 µl for 30 min at 30°C in appropriate kinase buffer (10 mM MgCl2, 1 mM EGTA, 1 mM DTT, 25 mM Tris-HCl pH 7.5, 50 µg/mL heparin), with peptide or protein as substrate in the presence of 10 µM ATP. Peptide substrates were obtained from ProteoGenix (Schiltigheim, France) or Sigma for Histone H1, Poly (L-glutamic acid – L-tyrosine) sodium salt, Casein and MBP. After that, 6 µL of ADP-GloTM Kinase Reagent was added to stop the kinase reaction. After an incubation time of 50 min at room temperature (rt), 12 µL of Kinase Detection Reagent was added for 1 h at rt. The transmitted signal was measured using the Envision (PerkinElmer, Waltham, MA) microplate luminometer and expressed in Relative Light Unit (RLU). Kinase activities are expressed in percentages of remaining kinase activities detected after treatment with 1 or 10 µM of the tested compounds. The maximal kinase activity is measured in the absence of inhibitor but with an equivalent dose of DMSO (solvent of the tested compounds).
(§4) Table. Human protein kinases tested in the panel: CDK9, HASPIN, PIM1, GSK3b, CK1ε, JAK3, CLK1 […]
(§5) 1 Peptide substrates were obtained from ProteoGenix (Schiltigheim, France) or Sigma for Histone H1, Poly (L-glutamic acid – L-tyrosine) sodium salt, Casein and MBP; 2 “Sp” stands for phosphorylated serine.
(§6) Controls inhibitors: To validate each kinase assay, the following model inhibitors were used under the same conditions than the tested compounds: Staurosporine from Streptomyces sp.

[1] = In vitro cytotoxic assay, Caco-2; format: cell-based; settings: human, Caco-2 cells (colon cancer cell line); further: 0.1-25 µM tested
Experimental: (§7) Skin normal fibroblastic cells were purchased from Lonza (Basel, Switzerland). […] All culture media were supplemented by 10% of FBS, 1% of penicillin–streptomycin and 2 mM glutamine.
(§8) Chemicals were solubilized in DMSO at a concentration of 10 mM (stock solution) and diluted in culture medium to the desired final concentrations. […] Cells were plated in 96-well plates (4000 cells/well). Twenty-four hours after seeding, the cells were exposed to chemicals. […] Image acquisition and analysis were performed using a Cellomics ArrayScan VTI/HCS Reader (ThermoScientific, Les Ulis, France). The survival percentages were calculated as the percentage of cell number after compound treatment over cell number after DMSO treatment. The relative IC50 values were calculated using the curve fitting XLfit 5.5.0.5 (idbs) integrated in Microsoft Excel as an add-on.
(§9) 4.3.1. Cell culture. Skin normal fibroblastic cells are purchased from Lonza (Basel, Switzerland). Huh7- […]
(§10) from ATCC (American Type Culture Collection). […]
(§11) supplemented by 10% of FBS, 1% of penicillin-streptomycin and 2 mM glutamine.
(§12) 4.3.2. Cytotoxic assay. Chemicals were solubilized in DMSO at a concentration of 10 mM (stock solution) and diluted in culture medium to the desired final concentrations. The dose effect cytotoxic assays (IC50 determination) were performed by increasing the concentrations of each chemical (final well […]
(§13) Cells were plated in 96-well plates
(§14) (4000 cells/well). Twenty-four hours after seeding, cells were exposed to chemicals. After 48h of treatment, cells were washed in PBS and fixed in cooled 90% ethanol/5% acetic acid for 20 min and the […]
(§15) Image acquisition and analysis were performed using a Cellomics ArrayScan VTI/HCS Reader (ThermoScientific). The survival percentages were calculated as the percentage of cell number after compound treatment over cell number after DMSO treatment. The relative IC50 were calculated using the curve fitting XLfit 5.5.0.5 (idbs) integrated in Microsoft Excel as an add-on. The 4 Parameter Logistic Model or Sigmoidal Dose-Response Model describing the sigmoid-shaped response pattern was used (fit = (A+[(B-A)/(1+[(C/x)^D])]) where fit is the response and X is the tested concentration of the compound. The lower asymptote is A (also referred to as the bottom of the curve or lower plateau or the min) and the upper asymptote is B (also referred to as the top of the curve or upper plateau or the max). The slope of the linear part of the curve is described by the factor D. The parameter C is the concentration corresponding to the response midway between A and B. C is called “relative IC50” because it refers to the maximum response obtained by a […]
(§16) The results are represented as the mean ± standard error (SE) calculated from at least three independent experiments.

[2] = In vitro cytotoxic assay, HCT-116; format: cell-based; settings: human, HCT-116 cells (colon cancer cell line)
Experimental: as §7, §8, §9, §10, §11, §12, §13, §14, §15, §16

[3] = In vitro cytotoxic assay, MDA-MB-231; format: cell-based; settings: human, MDA-MB-231 cells (breast cancer cell line); read-out: In vitro cytotoxic activity IC50, MBA-MB-231; further: 0.1-25 µM tested
Experimental: as §7, §8, §9, §10, §11, §12, §13, §14, §15, §16

DYRK1A = target: T2, DYRK1A (Homo sapiens, UniProt Q13627); assay: ADP-Glo kinase inhibition assay, DYRK1A; format: biochemical; settings: percentage of maximum activity of the DMSO control, mean n = 2, 10 µM ATP, read-out: Residual activity DYRK1A; for remaining activity at 1 µM: 1 μM compound; for remaining activity at 10 µM: 10 μM compound
T2 construct: host or cells: Sf9 insect cells (baculovirus)
Experimental: as §1, §2, §3, §4, §5, §6

[4] = In vitro cytotoxic assay, Huh7-D12; format: cell-based; settings: human, Huh7-D12 cells (liver cancer cell line)
Experimental: as §7, §8, §9, §10, §11, §12, §13, §14, §15, §16

T1 sequence (P49841 whole entry): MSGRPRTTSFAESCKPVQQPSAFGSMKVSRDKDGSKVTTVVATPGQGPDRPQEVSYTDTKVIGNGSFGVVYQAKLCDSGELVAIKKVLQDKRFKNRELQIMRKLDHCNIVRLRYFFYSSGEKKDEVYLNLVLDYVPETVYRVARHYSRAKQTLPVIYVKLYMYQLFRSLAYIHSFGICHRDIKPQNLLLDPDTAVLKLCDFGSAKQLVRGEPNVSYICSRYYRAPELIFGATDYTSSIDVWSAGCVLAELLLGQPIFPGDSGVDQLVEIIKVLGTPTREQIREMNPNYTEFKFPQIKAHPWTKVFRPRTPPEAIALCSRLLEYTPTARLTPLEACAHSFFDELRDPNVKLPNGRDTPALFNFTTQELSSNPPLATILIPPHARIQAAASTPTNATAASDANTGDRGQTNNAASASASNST

Row | remaining activity at 1 µM (GSK-3β) | remaining activity at 10 µM (GSK-3β) | remaining activity at 1 µM (DYRK1A) | remaining activity at 10 µM (DYRK1A) | SMILES | IC50 at 48 h [1] | IC50 at 48 h [2] | IC50 at 48 h [3] | IC50 at 48 h [4]
1 | 101% | 107% | 103% | 109% | COC(=N)c1nc2cc3ncn(Cc4ccccc4)c(=O)c3cc2s1 [Compound 6b, Methyl 7-benzyl-8-oxo-7,8-dihydrothiazolo[5,4-g]quinazoline-2-carbimidate] | 2 µM | 1 µM | 3 µM | 1 µM
2 | 81% | 91% | 100% | 68% | COC(=N)c1nc2c(ccc3c(=O)n(Cc4ccccc4)cnc32)s1 [Compound 6c, Methyl 7-benzyl-6-oxo-6,7-dihydrothiazolo[5,4-h]quinazoline-2-carbimidate] | 6 µM | 3 µM | 13 µM | 10 µM
3 | 94% | 105% | 83% | 63% | COC(=N)c1nc2ccc3c(=O)n(Cc4ccccc4)cnc3c2s1 [Compound 6d, Methyl 7-benzyl-6-oxo-6,7-dihydrothiazolo[4,5-h]quinazoline-2-carbimidate] | 10 µM | 2 µM | 11 µM | 9 µM
4 | 90% | 70% | 72% | 27% | COC(=N)c1nc2cc3c(Nc4ccc(OC)cc4F)ncnc3cc2s1 [Compound 15a, Methyl 8-[(2-fluoro-4-methoxyphenyl)amino]thiazolo[4,5-g]quinazoline-2-carbimidate] | – | 8 µM | 9 µM | 8 µM
5 | – | – | – | – | COC(=N)c1nc2ccc3ncnc(Nc4ccc(OC)cc4F)c3c2s1 [Compound II, methyl 9-[(2-fluoro-4-methoxyphenyl)amino]thiazolo[5,4-f]quinazoline-2-carbimidate, reference compound] | 3 µM | 4 µM | 5 µM | 5 µM
6 | 94% | 76% | 100% | 103% | COC(=N)c1nc2cc3c(=O)n(Cc4ccccc4)cnc3cc2s1 [Compound 6a, Methyl 7-benzyl-8-oxo-7,8-dihydrothiazolo[4,5-g]quinazoline-2-carbimidate] | 17 µM | 20 µM | 20 µM | > 25 µM
7 | 73% | 23% | 62% | 21% | COC(=N)c1nc2ccc3ncn(Cc4ccccc4)c(=O)c3c2s1 [Compound I, methyl 8-benzyl-9-oxo-8,9-dihydrothiazolo[5,4-f]quinazoline-2-carbimidate, reference compound] | 12 µM | 18 µM | 21 µM | 15 µM
8 | 101% | 104% | 95% | 101% | COC(=N)c1nc2cc3ncnc(Nc4ccc(OC)cc4F)c3cc2s1 [Compound 15b, Methyl 8-[(2-fluoro-4-methoxyphenyl)amino]thiazolo[5,4-g]quinazoline-2-carbimidate] | – | – | – | –
